From patent publication US20260001875A1, “AMINOPYRIMIDINYL DERIVATIVES FOR THE TREATMENT OF PARKINSON'S DISEASE” (UNIVERSITY OF DUNDEE, priority 2022, published 2026) come the findings set out here.

Assay [1] relates to Rab10 pThr73. The experiment in a line: Rab10 Thr73 dephosphorylation (immunoblot) in WT MEFs. The format is cell-based, mouse. To be noted: Mus musculus, read-out: pRab10 inhibited in WT MEFs. The procedure, abridged: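 Wild-type mouse embryonic fibroblasts in 6-well plates were treated with LRRK2 PROTACs, with two biological replicates per condition. Cells were washed in PBS and lysed on ice in buffer containing phosphatase and protease inhibitors plus 1% Triton X-100, then clarified at 15,000 g. Rab10 Thr73 phosphorylation was measured by quantitative immunoblotting of 15 to 20 μg protein on 4-12% Bis-Tris gels.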
(A western blot detects proteins with antibodies after separation by electrophoresis.)

Assay [2] relates to Rab10 pThr73. Description: Rab10 Thr73 dephosphorylation (immunoblot) in LRRK2^G2019S MEFs. The format is cell-based. The settings on record: Mus musculus, read-out: pRab10 inhibited in LRRK2^G2019S MEFs.
The test system of assay [3] is Rab10 pThr73. Described as above. The format is cell-based, mouse. To be noted: Mus musculus, 1 μM/4 h treatment; read-out: pRab10 inhibited in LRRK2^G2019S MEFs.
In assay [4] the test system is LRRK2^WT. The experiment in a line: Western blot LRRK2 degradation in WT MEFs. To be noted: WT MEFs and LRRK2^G2019S MEFs. Type of assay: cell-based, mouse.

`CNc1nc(Nc2ccc(C(=O)N3CCN(Cc4ccc(CSC(C)(C)[C@H](NC(=O)C5(F)CC5)C(=O)N5C[C@H](O)C[C@H]5C(=O)NCc5ccc(-c6scnc6C)cc5)cc4)CC3)cc2OC)ncc1Cl` [SD100, (2S,4R)-1-((R)-3-((4-((4-(4-((5-chloro-4-(methylamino)pyrimidin-2-yl)amino)-3-methoxybenzoyl)piperazin-1-yl)methyl)benzyl)thio)-2-(1-fluorocyclopropane-1-carboxamido)-3-methylbutanoyl)-4-hydroxy-N-(4-(4-methylthiazol-5-yl)benzyl)pyrrolidine-2-carboxamide]: the values for the inhibition at 0.033 µM in assay [1] (33 nM/4 h treatment), in assay [2] (33 nM/4 h treatment) and in assay [2] (33 nM/24 h treatment) were 0 to 25%, 0 to 60% and 0 to 70%, respectively. The inhibition at 1 µM in assay [1] (1 μM/4 h treatment) fell in the range of 18 to 90%; in assay [1] (1 μM/24 h treatment), 30 to 90%; in assay [3] it was 30 to 95%. Also, the “LRRK2 degradation (in words)” value in assay [4] is on record as “moderate LRRK2 degradation”.
